Data: US20180142537A1, “WATER INJECTION SYSTEM COMPRISING BIOFILM SENSOR(S)” (TOTAL SA, priority 2015, published 2018)

Tests used:
biofilm [1] = experiment: Detection and removal of biofilm by batch or continuous injection of a biocide, seawater channels with ALVIM electrochemical biofilm probe; details: Mediterranean seawater; for biofilm probe signal after batch injection of biocide: batch injections at biofilm phases 900 mV, 1100 mV and 1200 mV, FIG. 3
Method: Tests of biofilm detection were carried out in a pilot plant continuously fed with Mediterranean seawater (2 m deep, 50 m from the coast). The experimental conditions are favorable to the biofilm growth: laminar flowing and coastal seawater rich in microorganisms and suspended solids (Silt Density Index SDI5min=10-18).
Tests were carried out in a tank divided in 6 parallel channels with equal dimensions (0.76 m-long, 0.1 m-deep and 0.07 m-wide per channel). Each channel was continuously fed with from 10 L/h to 40 L/h of seawater pre-filtered with a multimedia filter (40 μm). The speed of water flowing in the channels ranges from 0.0003 to 0.0013 m/s.
Several channels are equipped with an electrochemical biofilm sensor whose working electrode is immersed within the flowing water phase. The electrochemical biofilm sensor is provided by ALVIM Srl. This biofilm sensor is able to detect the electrochemical activity of a biofilm (Faimali et al., 2010 and Pavanello et al., 2011). This activity is proportional to the surface covered with biofilm. Thus, when a biofilm appears on the flat surface of the working electrode, the electrical signal transmitted by the device instantly increases. When the working electrode is immersed in seawater, its potential is stable (around 600 mV). Whenever the working electrode detects the biofilm, its potential increases and reaches a potential threshold which relate to a given maximum value of the probe (signal saturation).
The following experiment has been performed on two parallel channels of the tank. Each one is equipped with an ALVIM probe. Two biocides were tested: sodium hypochlorite (ClO^−Na^+) and rocideDB (DBNPA). Batch injections of biocides have been carried out at different development phases of the biofilm (900 mV, 1100 mV and 1200 mV) in order to evaluate the resistance of the biofilm as a function of its maturation time.

biofilm [2] = experiment: Biofilm growth upstream and downstream an ultrafiltration unit, with sodium hypochlorite injection; details: 2 ppm injected at pilot inlet, upstream of the ultrafiltration module; two injections; FIG. 5
Text: A second series of tests has been carried out to study the efficiency of inline monitoring upstream and downstream an ultrafiltration unit (pore size 10-50 nm). This type of porous membranes is considered as being able to retain all microorganisms present in natural water.
Ultrafiltration modules are used according to the set up represented at FIG. 4. The UF modules are continuously fed with pre-filtered Mediterranean seawater (40 μm multimedia filter F, 2 m deep, 50 m from the coast, laminar flowing, Silt Density Index SDI5min=10-18). The flow rates of the UF modules are: 3000-4000 L/h and the recovery is around 80%.
Two probes are positioned at the following locations of the pilot: • Probe 1: at the feedwater point of the ultrafiltration module (0.4-0.6 m/s);
Probe 2: downstream the ultrafiltration module (flowing velocity=0.3-0.5 m/s).
A dose of sodium hypochlorite is injected at various times during the experiment at the inlet of the pilot (upstream probe 1) as shown on FIG. 5.

SMILES	biofilm probe signal after batch injection of biocide (biofilm [1])	signal of probe 1 (feedwater) after biocide injection (biofilm [2])	biofilm growth under continuous biocide injection (biofilm [1]; continuous injection of 1 mg/L)
N#CC(Br)(Br)C(N)=O [DBNPA, 2,2-dibromo-3-nitrilopropionamide]	brings the signal back to the baseline	–	–
OCl [sodium hypochlorite]	brings the signal back to the baseline	goes down rapidly to the baseline	no biofilm growth was detected
